Data published in patent publication US7402688B2, “2,2-Di-substituted 1alpha,25-dihydroxy-19-norvitamin D derivative” (Wisconsin Alumni Research Foundation, priority 2002, dated 2008).

Key:
vitamin D receptor (VDR) = molecular target: T1, vitamin D receptor (VDR) (Bos taurus, UniProt Q28037); experiment: Binding assay for calf thymus vitamin D receptor (VDR); details: relative to 1α,25-dihydroxyvitamin D3 = 1; ratio of concentrations for 50% inhibition of [3H]-1α,25-dihydroxyvitamin D3 binding to calf thymus VDR
T1 construct: vitamin D receptor (VDR) derived from calf thymus was evaluated; purchased Yamasa Shoyu Co., Ltd. (Choshi, Chiba, Japan) Lot; No. 111931; host or cells: calf thymus (tissue preparation)
T1 sequence (Q28037 1-426): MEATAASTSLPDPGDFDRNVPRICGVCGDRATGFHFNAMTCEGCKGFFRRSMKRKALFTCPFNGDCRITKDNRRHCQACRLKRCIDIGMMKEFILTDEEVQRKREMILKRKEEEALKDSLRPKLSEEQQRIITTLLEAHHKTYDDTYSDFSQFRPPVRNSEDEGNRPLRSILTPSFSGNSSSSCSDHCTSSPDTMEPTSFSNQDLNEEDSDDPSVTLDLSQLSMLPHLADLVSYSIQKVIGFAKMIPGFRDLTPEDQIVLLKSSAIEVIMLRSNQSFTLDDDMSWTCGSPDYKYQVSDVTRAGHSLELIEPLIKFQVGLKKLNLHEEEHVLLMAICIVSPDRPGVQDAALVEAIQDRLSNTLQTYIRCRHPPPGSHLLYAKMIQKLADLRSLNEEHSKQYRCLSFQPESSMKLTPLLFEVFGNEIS
Procedure: Binding Assay for Calf Thymus Vitamin D Receptor (VDR)
The binding ability of the compounds of the present inventions described in the above Examples to vitamin D receptor (VDR) derived from calf thymus was evaluated.
The binding assay was carried out according to the manufacturer's instruction of Yamasa Shoyu Co., Ltd. as follows.
An EtOH solution (sample) containing an increasing amount of each 1α,25-dihydroxyvitamin D3 (as a standard reference material), and Compounds YI-1a, YI-1b, YI-2a, YI-3a, YI-3b, YI-4a, YI-4b, YI-5a, YI-5b, 20-Epi-YI-1a, 20-Epi-YI-1b, 20-Epi-YI-2a, 20-Epi-YI-3a, 20-Epi-YI-4a, 20-Epi-YI-4b, 20-Epi-YI-5a, 20-Epi-YI-5b, 20-Epi-YI-6a, 20-Epi-YI-6b, 20-Epi-YI-7a, 20-Epi-YI-7b, 20-Epi-YI-8a, and 20-Epi-YI-8b was prepared, that is, dilution series were prepared wherein final concentrations of each compounds in a mixture, which is prepared by following step, of receptor solutions, samples, and [^3H]-1α,25-dihydroxyvitamin D3 solutions are 100 nM, 30 nM 10 nM, 1 nM, 300 pM, 100 pM, 30 pM, 10 pM, 3 pM, and 1 pM.
Freeze-dried calf thymus vitamin D receptors (Lot. No. 111931) were purchased from Yamasa Shoyu Co., Ltd. (Choshi, Chiba, Japan) and were dissolved in 45 mL of phosphate buffer (0.3 M KCl, 0.05 M K2HPO4—KH2PO4, pH 7.4) just before use to use as a receptor solution.
50 μL of sample of Compounds YI-1a, YI-1b, YI-2a, YI-3a, YI-3b, YI-4a, YI-4b, YI-5a, YI-5b, 20-Epi-YI-1a, 20-Epi-YI-1b, 20-Epi-YI-2a, 20-Epi-YI-3a, 20-Epi-YI-4a, 20-Epi-YI-4b, 20-Epi-YI-5a, 20-Epi-YI-5b, 20-Epi-YI-6a, 20-Epi-YI-6b, 20-Epi-YI-7a, 20-EPi-YI-7b, 20-Epi-YI-8a, 20-Epi-YI-8b, or 1α,25-dihydroxyvitamin D3 and 500 μL of the receptor solution were pipetted into glass culture tubes. The mixture was vortexed 2-3 times, and incubated for 1 h at room temperature. To each tubes, [^3H]-1α,25-dihydroxyvitamin D3 (ca. 10000 dpm) in 50 μL of EtOH was added, the mixture was vortexed 2-3 times, and the whole mixture was incubated for 18 h at 4° C. (in a refrigerator). Then, 200 μL of DCC (dextran-coated charcoal; purchased from Yamasa Shoyu) was added to each tubes, and allowed to stand for 30 min at 4° C. Bound and free [^3]-1α,25-dihydroxyvitamin D3 were separated by centrifugation at 3000 rpm for 15 min at 4° C. Aliquots (500 μL) of the supernatant were put into vial bottles from each tube, and were mixed with 10 mL of ACS-II fluid scintillator (Amersham, Buckinghamshire, U.K.) and submitted for radioactivity counting.
The relative binding affinity of the vitamin D derivatives of the present inventions to VDR was calculated regarding binding affinity of 1α,25-dihydroxyvitamin D3 to VDR as 1. The following equation was used to calculate the relative VDR binding affinity: X=y/x
X: the relative binding affinity of the compound of the present inventions to VDR
y: the concentration of 1α,25-dihydroxyvitamin D3 required for 50% inhibition of binding [^3H]-1α,25-dihydroxyvitamin D3 to VDR
x: the concentration of the compound of the present inventions required for 50% inhibition of binding [^3H]-1α,25-dihydroxyvitamin D3 to VDR

cellular differentiation = details: compared with 1,25-(OH)2D3; cited from earlier work

Row | SMILES | VDR affinity (relative binding affinity X=y/x) (vitamin D receptor (VDR)) | cellular effects (cellular differentiation)
1 | C[C@@H](CCCC(C)(C)O)C1CCC2/C(=C/C=C3C[C@@H](O)C(OCCO)[C@H](O)C3)CCCC21C (single isomer, unassigned) [Compound 20-Epi-YI-6a] | 1 | 
2 | C[C@@H](CCCC(C)(C)O)C1CCC2/C(=C/C=C3C[C@@H](O)C(OCCO)[C@H](O)C3)CCCC21C (single isomer, unassigned) [Compound 20-Epi-YI-6b] | 5 | 
3 | C[C@H](CCCC(C)(C)O)[C@H]1CC[C@H]2/C(=C/C=C3C[C@@H](O)C[C@H](O)C3)CCC[C@]12C [19-nor-1,25-(OH)2D3, 19-nor-1α,25-dihydroxyvitamin D3] |  | equivalent to 1,25-(OH)2D3
4 | C[C@@H](CCCC(C)(C)O)C1CCC2/C(=C/C=C3C[C@@H](O)C4(CO4)[C@H](O)C3)CCCC21C (stereo partly drawn) [Compound 20-Epi-YI-1a, (20S)-1α,25-dihydroxy-2β,2′-epoxy-19-norvitamin D3] | 1/2 | 
5 | C[C@@H](CCCC(C)(C)O)C1CCC2/C(=C/C=C3C[C@@H](O)C4(CO4)[C@H](O)C3)CCCC21C (stereo partly drawn) [Compound 20-Epi-YI-1b, (20S)-1α,25-dihydroxy-2α,2′-epoxy-19-norvitamin D3] | 1/5 | 
6 | C[C@@H](CCCC(C)(C)O)C1CCC2/C(=C/C=C3C[C@@H](O)C(O)(CF)[C@H](O)C3)CCCC21C (stereo partly drawn) [Compound 20-Epi-YI-2a, (20S)-1α,2β,25-trihydroxy-2α-fluoromethyl-19-norvitamin D3] | 2 | 
7 | C[C@@H](CCCC(C)(C)O)C1CCC2/C(=C/C=C3C[C@@H](O)C(C)(O)[C@H](O)C3)CCCC21C (stereo partly drawn) [Compound 20-Epi-YI-3a, (20S)-1α,2β,25-trihydroxy-2α-methyl-19-norvitamin D3] | 1 | 
8 | CCC1(O)[C@H](O)CC(=C/C=C2\CCCC3(C)C2CCC3[C@@H](C)CCCC(C)(C)O)C[C@H]1O (stereo partly drawn) [Compound 20-Epi-YI-4a, (20S)-1α,2β,25-trihydroxy-2α-ethyl-19-norvitamin D3] | 1/20 | 
9 | CCC1(O)[C@H](O)CC(=C/C=C2\CCCC3(C)C2CCC3[C@@H](C)CCCC(C)(C)O)C[C@H]1O (stereo partly drawn) [Compound 20-Epi-YI-4b, (20S)-1α,2α,25-trihydroxy-2β-ethyl-19-norvitamin D3] | 1/1000 | 
10 | COCC1(O)[C@H](O)CC(=C/C=C2\CCCC3(C)C2CCC3[C@@H](C)CCCC(C)(C)O)C[C@H]1O (stereo partly drawn) [Compound 20-Epi-YI-5a, (20S)-1α,2β,25-trihydroxy-2α-methoxymethyl-19-norvitamin D3] | 1/5 | 
11 | COCC1(O)[C@H](O)CC(=C/C=C2\CCCC3(C)C2CCC3[C@@H](C)CCCC(C)(C)O)C[C@H]1O (stereo partly drawn) [Compound 20-Epi-YI-5b, (20S)-1α,2α,25-trihydroxy-2β-methoxymethyl-19-norvitamin D3] | 1/10 | 
12 | C[C@@H](CCCC(C)(C)O)C1CCC2/C(=C/C=C3C[C@@H](O)C(CCO)[C@H](O)C3)CCCC21C (stereo partly drawn) [Compound 20-Epi-YI-7a] | 1 | 

Second part, led by results:

Row | VDR affinity (relative binding affinity X=y/x) (vitamin D receptor (VDR)) | SMILES | cellular effects (cellular differentiation)
13 | 1/5 | C[C@@H](CCCC(C)(C)O)C1CCC2/C(=C/C=C3C[C@@H](O)C(CCO)[C@H](O)C3)CCCC21C (stereo partly drawn) [Compound 20-Epi-YI-7b] | 
14 | 1.6 | C[C@@H](CCCC(C)(C)O)C1CCC2/C(=C/C=C3C[C@@H](O)C(=CCO)[C@H](O)C3)CCCC21C (stereo partly drawn) [Compound 20-Epi-YI-8a] | 
15 | 1/50 | C[C@@H](CCCC(C)(C)O)C1CCC2/C(=C/C=C3C[C@@H](O)C(=CCO)[C@H](O)C3)CCCC21C (stereo partly drawn) [Compound 20-Epi-YI-8b, (20S)-1α,25-dihydroxy-2-[2-(hydroxyl)-ethylidene]-19-norvitamin D3] | 
16 | 1/23 | C[C@H](CCCC(C)(C)O)C1CCC2/C(=C/C=C3C[C@@H](O)C4(CO4)[C@H](O)C3)CCCC21C (stereo partly drawn) [YI-1a, 1α,25-dihydroxy-2β,2′-epoxy-19-norvitamin D3] | 
17 | 1/290 | C[C@H](CCCC(C)(C)O)C1CCC2/C(=C/C=C3C[C@@H](O)C4(CO4)[C@H](O)C3)CCCC21C (stereo partly drawn) [YI-1b, 1α,25-dihydroxy-2α,2′-epoxy-19-norvitamin D3] | 
18 | 1/43 | C[C@H](CCCC(C)(C)O)C1CCC2/C(=C/C=C3C[C@@H](O)C(O)(CF)[C@H](O)C3)CCCC21C (stereo partly drawn) [YI-2a, 1α,2β,25-trihydroxy-2α-fluoromethyl-19-norvitamin D3] | 
19 | 1/3 | C[C@H](CCCC(C)(C)O)C1CCC2/C(=C/C=C3C[C@@H](O)C(C)(O)[C@H](O)C3)CCCC21C (stereo partly drawn) [YI-3a, 1α,2β,25-trihydroxy-2α-methyl-19-norvitamin D3] | 
20 | 1/730 | C[C@H](CCCC(C)(C)O)C1CCC2/C(=C/C=C3C[C@@H](O)C(C)(O)[C@H](O)C3)CCCC21C (stereo partly drawn) [YI-3b, 1α,2α,25-trihydroxy-2β-methyl-19-norvitamin D3] | 
21 | 1/50 | CCC1(O)[C@H](O)CC(=C/C=C2\CCCC3(C)C2CCC3[C@H](C)CCCC(C)(C)O)C[C@H]1O (stereo partly drawn) [YI-4a, 1α,2β,25-trihydroxy-2α-ethyl-19-norvitamin D3] | 
22 | 1/2000 | CCC1(O)[C@H](O)CC(=C/C=C2\CCCC3(C)C2CCC3[C@H](C)CCCC(C)(C)O)C[C@H]1O (stereo partly drawn) [YI-4b, 1α,2α,25-trihydroxy-2β-ethyl-19-norvitamin D3] | 
23 | 1/26 | COCC1(O)[C@H](O)CC(=C/C=C2\CCCC3(C)C2CCC3[C@H](C)CCCC(C)(C)O)C[C@H]1O (stereo partly drawn) [YI-5a, 1α,2β,25-trihydroxy-2α-methoxymethyl-19-norvitamin D3] | 
24 | 1/820 | COCC1(O)[C@H](O)CC(=C/C=C2\CCCC3(C)C2CCC3[C@H](C)CCCC(C)(C)O)C[C@H]1O (stereo partly drawn) [YI-5b, 1α,2α,25-trihydroxy-2β-methoxymethyl-19-norvitamin D3] | 
